Laboratory results taken from the supplement of paper PMC10307832.

Key:
Experiment in all cases: relative viability (nuclei count vs DMSO), 5 days (fraction); higher = more cells survive
IDH-C35 + Pictilisib = compound: Cc1ccccc1C(C(=O)NC1CCCCC1)N(C(=O)Cn1ccnc1C)c1cccc(F)c1 [IDH-C35] + CS(=O)(=O)N1CCN(Cc2cc3nc(-c4cccc5[nH]ncc45)nc(N4CCOCC4)c3s2)CC1 [Pictilisib] (partner 1 µM)
Outline: (§1)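 Lung cancer cell lines were pin-tool dosed in 1536-well plates on the day after seeding, with either a lone drug or a fixed anchor-drug dose plus five library-drug doses (not always all listed) in √10 steps. Nuclei were counted on 4× images after 5 days. Relative viability is the ratio of treated-well to vehicle-well nuclei counts, with each value a median of duplicate plates.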

[1] = compound: CC1=C(C(=NN1)C)CC2=C(C3=C(S2)N(C(=O)N(C3=O)C)CC(C)C)C(=O)N4C[C@@H](CO4)O + COc1cc2c(Oc3ccc(NC(=O)C4(C(=O)Nc5ccc(F)cc5)CC4)cc3F)ccnc2cc1OCCCN1CCOCC1 [Foretinib] (partner 0.25 µM)
Outline: as §1

[2] = compound: CC1=C(C(=NN1)C)CC2=C(C3=C(S2)N(C(=O)N(C3=O)C)CC(C)C)C(=O)N4C[C@@H](CO4)O + C[C@@H](Oc1cc(-c2cnn(C3CCNCC3)c2)cnc1N)c1c(Cl)ccc(F)c1Cl [Crizotinib] (partner 1 µM)
Outline: as §1

[3] = compound: CC1=C(C(=NN1)C)CC2=C(C3=C(S2)N(C(=O)N(C3=O)C)CC(C)C)C(=O)N4C[C@@H](CO4)O + C[C@]1(O)C[C@@H](c2nc(-c3ccc4ccc(-c5ccccc5)nc4c3)c3c(N)nccn32)C1 [Linsitinib] (partner 1 µM)
Outline: as §1

Row | Cell Line | relative viability (IDH-C35 + Pictilisib; first compound 0.08 µM) | relative viability (IDH-C35 + Pictilisib; first compound 0.253 µM) | relative viability (IDH-C35 + Pictilisib; first compound 0.8 µM) | relative viability (IDH-C35 + Pictilisib; first compound 2.53 µM) | relative viability (IDH-C35 + Pictilisib; first compound 8 µM) | relative viability ([1]; first compound 0.0025 µM) | relative viability ([1]; first compound 0.007906 µM) | relative viability ([1]; first compound 0.025 µM) | relative viability ([1]; first compound 0.07906 µM) | relative viability ([1]; first compound 0.25 µM) | relative viability ([2]; first compound 0.0025 µM) | relative viability ([2]; first compound 0.007906 µM) | relative viability ([2]; first compound 0.025 µM) | relative viability ([2]; first compound 0.07906 µM) | relative viability ([2]; first compound 0.25 µM) | relative viability ([3]; first compound 0.0025 µM) | relative viability ([3]; first compound 0.007906 µM) | relative viability ([3]; first compound 0.025 µM) | relative viability ([3]; first compound 0.07906 µM) | relative viability ([3]; first compound 0.25 µM)
1 | HCC-15 | 0.719 | 0.727 | 0.682 | 0.618 | 0.645 | 1.05 | 0.989 | 0.961 | 1.03 | 1.2 | 0.826 | 0.71 | 0.781 | 0.757 | 0.947 | 0.932 | 0.937 | 0.871 | 0.942 | 0.855
2 | A-427 | 0.621 | 0.801 | 0.615 | 0.466 | 0.791 | 1.29 | 1.22 | 0.937 | 1.11 | 1.14 | 0.904 | 0.953 | 0.879 | 0.917 | 1.13 | 1.09 | 1.22 | 1.08 | 1.08 | 1.14
3 | NCI-H2228 | 0.328 | 0.296 | 0.421 | 0.486 | 0.457 | 0.828 | 1.04 | 0.734 | 0.83 | 1.08 | 0.421 | 0.523 | 0.473 | 0.505 | 0.469 | 0.912 | 1.07 | 0.672 | 0.764 | 0.674
4 | NCI-H1734 | 0.503 | 0.499 | 0.427 | 0.414 | 0.432 | 0.811 | 0.976 | 0.896 | 0.9 | 0.916 | 0.773 | 0.517 | 0.641 | 0.614 | 0.562 | 0.925 | 1.05 | 0.861 | 0.947 | 0.881
5 | PC-14 | 0.712 | 0.685 | 0.641 | 0.575 | 0.642 | 0.973 | 0.936 | 0.941 | 0.942 | 1.09 | 0.91 | 0.904 | 0.881 | 0.932 | 0.954 | 1.06 | 1.02 | 0.93 | 0.936 | 0.94
6 | NCI-H1915 | 0.976 | 0.914 | 0.975 | 0.934 | 0.914 | 1.18 | 1.12 | 1.05 | 1.01 | 1.11 | 0.959 | 0.92 | 0.836 | 0.884 | 1.01 | 1.12 | 1.13 | 1.08 | 1.05 | 1.17
7 | NCI-H1666 | 0.471 | 0.404 | 0.322 | 0.622 | 0.426 | 0.93 | 0.995 | 0.897 | 0.94 | 1.03 | 1.04 | 1.16 | 1.05 | 0.977 | 1.08 | 0.834 | 0.839 | 1.06 | 0.884 | 0.847
8 | HCC-366 | 0.12 | 0.132 | 0.169 | 0.151 | 0.178 | 0.918 | 0.932 | 0.905 | 0.771 | 0.958 | 0.661 | 1.13 | 0.622 | 0.641 | 0.825 | 0.593 | 0.771 | 0.59 | 0.62 | 0.712
9 | SK-MES-1 | 0.335 | 0.414 | 0.358 | 0.343 | 0.295 | 0.901 | 1.06 | 1.02 | 0.954 | 0.991 | 1.13 | 0.995 | 1.08 | 0.944 | 0.966 | 1.05 | 1.03 | 1.04 | 1.15 | 1.14
10 | SW 1573 | 0.468 | 0.502 | 0.439 | 0.59 | 0.476 | 0.958 | 1.05 | 0.86 | 0.74 | 0.964 | 0.955 | 0.866 | 0.798 | 0.786 | 0.812 | 0.869 | 0.905 | 0.869 | 0.804 | 0.782
11 | NCI-H661 | 0.346 | 0.446 | 0.404 | 0.534 | 0.427 | 1 | 0.97 | 0.95 | 0.978 | 0.998 |  | 0.965 | 0.938 | 0.988 | 1.07 | 0.593 | 0.636 | 0.603 | 0.762 | 0.463
12 | PC-3 [JPC-3] | 0.802 | 0.772 | 0.687 | 0.844 | 0.703 | 1.14 | 1.01 | 1.05 | 1.02 | 1.08 | 1.02 | 0.898 | 0.93 | 0.861 | 1.08 | 0.966 | 0.945 | 0.974 | 0.958 | 1.01
13 | NCI-H1623 |  |  |  |  |  | 0.985 | 0.788 | 0.997 | 0.805 | 0.749 |  |  |  |  |  |  |  |  |  | 
14 | Calu-6 | 0.875 | 0.895 | 0.881 | 0.877 | 0.898 | 0.984 | 0.813 | 0.715 | 0.809 | 0.897 | 0.741 | 0.691 | 0.808 | 0.746 | 1 | 0.974 | 0.933 | 0.877 | 0.907 | 0.952
15 | LC-2-ad | 0.595 | 0.472 | 0.439 | 0.441 | 0.455 | 0.897 | 0.836 | 0.911 | 1.06 | 1.08 | 0.486 | 0.451 | 0.411 | 0.454 | 0.638 | 0.848 | 0.928 | 0.9 | 0.869 | 0.843
16 | CAL-12T | 0.347 | 0.429 | 0.559 | 0.339 | 0.608 | 1.08 | 1.3 | 1.05 | 1.25 | 1.17 | 0.76 | 0.724 | 0.558 | 0.667 | 0.817 | 0.899 | 0.853 | 0.845 | 0.807 | 1.11
